US4786627A, “Thiadiazole guanidines” (Reckitt & Colman Products Limited, priority 1987, dated 1988)
Read-outs that look alike come from different tables or passages of the source.

Columns and labels:
[1] = tested on: maximal electroshock seizures (MES); assay: electroshock test, maximal electroshock seizures (MES), inhibition of hind limb tonus, rat; format: in vivo; conditions: read-out: Inhibition of Hind Limb Tonus ED50 (limits), RAT MES
[2] = tested on: maximal electroshock seizures (MES); assay: electroshock test, maximal electroshock seizures (MES), inhibition of hind limb tonus, mouse; format: in vivo; conditions: read-out: Inhibition of Hind Limb Tonus ED50 (limits), MOUSE MES
Protocol: (§1) The pharmacological activity of the compounds of the invention have been determined according to the following procedures. Their anticonvulsant activity was determined in the metrazol antagonism test in mice (MMS) (Soaje-Echaque E; Lim RKS, J Pharmac Exp Ther 1962, 138, 224; Desmedt LKC; Niemegeers CJE; Lewi PJ; Janssen PAJ, Arzneim-Forsch (Drug Res), 1976, 26, 1592) and the electroshock test in mice (MES)(Tulloch IF; Walter DS; Howe GM; Howe SJ, Neuropharmacology 1982, 21, 555).

[3] = tested on: maximal metrazol seizures (MMS); assay: metrazol antagonism test, maximal metrazol seizures (MMS), inhibition of hind limb tonus, mouse; format: in vivo; conditions: read-out: Inhibition of Hind Limb Tonus ED50 (limits), MOUSE MMS
Protocol: as §1

[4] = neurotoxicity, rotorod test, mouse; format: in vivo, mice; conditions: in vivo, po
Source text: (§2) ^(a) Dose at which 50% of trained animals fall off the rotorod

[5] = tested on: trained animals fall off the rotorod; assay: neurotoxicity, rotorod test, mouse; format: in vivo, mice; conditions: oral, rotorod
Source text: as §2

[6] = tested on: electrically and chemically induced seizures; assay: anticonvulsant activity in animal tests (electrically and chemically induced seizures); format: in vivo; conditions: rat and mouse, oral
Protocol: as §1

[7] = rat, MES, oral, t=1 hour, limits in parentheses
[8] = mouse, MES, oral, t=1 hour, limits in parentheses
[9] = mouse, MMS, oral, t=1 hour, limits in parentheses

| Structure (SMILES) | ED50 [1, 7] [mg/kg] | ED50 [2, 8] [mg/kg] | ED50 [3, 9] [mg/kg] | TD50 at 1 h [4] [mg/kg] | level of neurotoxicity (in words) [5] | anticonvulsant activity (in words) [6] | ED50 ([1]; Rattus norvegicus, po, 1 h) [mg/kg] | ED50 ([2]; Mus musculus, po, 1 h) [mg/kg] | ED50 ([3]; Mus musculus, po, 1 h) [mg/kg] |
| --- | --- | --- | --- | --- | --- | --- | --- | --- | --- |
| Cl.N=C(N)Nc1nnc(-c2ccccc2C(F)(F)F)s1 [Example 1, 2-Guanidino-5-[2-(trifluoromethyl)phenyl]-1,3,4-thiadiazole hydrochloride] | 22 | 27 | 45 | 324 | acceptable level | potent anticonvulsants blocking both electrically and chemically induced seizures |  |  |  |
| C/N=C(\N)Nc1nnc(-c2ccccc2C(F)(F)F)s1 [Example 2, 2-(3-Methylguanidino)-5-[2-(trifluoromethyl)phenyl]-1,3,4-thiadiazole] |  | 49 | 44 | > 400 | acceptable level |  |  |  |  |
| NC(=O)N1c2ccccc2C=Cc2ccccc21 [carbamazepine] | 4 | 20 | 11 |  |  |  |  |  |  |
| CCC1(c2ccccc2)C(=O)NC(=O)NC1=O [phenobarbital] |  |  |  |  |  |  | 9 | 12 | 4 |
| O=C1NC(=O)C(c2ccccc2)(c2ccccc2)N1 [phenytoin] | 14 | 8 | 8 |  |  |  |  |  |  |
